The experiment concerns the target T1, human FAAH (Homo sapiens, UniProt O00519).
T1 construct: host or cells: COS-7 cells, transient transfection (FuGENE 6); 13,000 g membrane fraction solubilised in 1% Triton X-100
T1 sequence (O00519 1-579): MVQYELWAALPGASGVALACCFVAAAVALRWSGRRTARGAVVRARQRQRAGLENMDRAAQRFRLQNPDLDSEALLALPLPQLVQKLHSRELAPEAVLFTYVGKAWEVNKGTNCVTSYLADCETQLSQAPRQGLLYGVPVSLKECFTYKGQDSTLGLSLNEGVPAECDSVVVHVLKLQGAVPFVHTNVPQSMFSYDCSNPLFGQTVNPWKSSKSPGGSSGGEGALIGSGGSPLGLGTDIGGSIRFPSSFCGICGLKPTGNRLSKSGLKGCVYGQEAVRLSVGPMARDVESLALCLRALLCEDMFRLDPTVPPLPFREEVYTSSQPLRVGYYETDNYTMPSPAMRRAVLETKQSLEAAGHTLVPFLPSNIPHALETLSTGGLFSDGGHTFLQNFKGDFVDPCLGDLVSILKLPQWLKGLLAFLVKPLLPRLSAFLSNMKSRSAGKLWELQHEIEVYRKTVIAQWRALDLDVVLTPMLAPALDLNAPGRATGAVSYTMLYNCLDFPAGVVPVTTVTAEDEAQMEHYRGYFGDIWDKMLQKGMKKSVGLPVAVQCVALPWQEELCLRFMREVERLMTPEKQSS
The experiment is described as follows: Human FAAH biochemical inhibition assay (AMC arachidonoyl amide fluorescence). The settings on record: class given in each Example, read-out: Activity (Ki, inhibition of human FAAH). The essentials:
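Human FAAH from solubilized membranes of transiently transfected COS-7 cells, 0.1 mg/mL in 50 mM Hepes pH 7.5, 1 mM EDTA, 0.2% Triton X-100, preincubated 30 min at room temperature with 3-fold serially diluted inhibitor. Hydrolysis of AMC arachidonoyl amide read by fluorescence (ex 355/em 460 nm). Data fitted to single-site competitive inhibition with Km fixed at 9 μM.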

A value given as a limit tells only on which side of the number the result lay.

Consider `CN(c1ccccc1)c1ccc2cc(B(O)O)ccc2n1` [Compound 205], for which the Ki was 10 to 100 nM.

In the case of `OB(O)c1ccc2nc(Nc3ccccc3)ccc2c1` [Compound 206], the Ki was ≤ 10 nM. Under `OB(O)c1ccc2nc(N3CCCc4ccccc43)ccc2c1` [Compound 207] stands 10 to 100 nM.

Turning to `OB(O)c1ccc2cc(Oc3ncccn3)ccc2c1` [Compound 208], the Ki is ≤ 10 nM. As for `OB(O)c1ccc2nc(Oc3cccnc3)ccc2c1` [Compound 209], the Ki was ≤ 10 nM. As for `Cc1cc2cc(B(O)O)ccc2nc1Oc1ccccc1` [Compound 210], the figure is ≤ 10 nM; as for `OB(O)c1ccc2nc(Oc3ccccc3)cnc2c1` [Compound 211], 10 to 100 nM.

Turning to `Cc1cc(Oc2ccccc2)nc2c(C)cc(B(O)O)cc12` [Compound 212], the Ki was in the range of 10 to 100 nM. Regarding `Cc1cc(Oc2ccccc2)nc2ccc(B(O)O)cc12` [Compound 213], the Ki is ≤ 10 nM.

Take `OB(O)c1ccc2nc(Oc3ccccc3)sc2c1` [Compound 214]: the Ki is ≤ 10 nM. As to `OB(O)c1ccc2nc(Oc3ccccn3)ccc2c1` [Compound 215], the Ki is ≤ 10 nM.

Take `OB(O)c1ccc2cc(Oc3ccccc3)ccc2c1` [Compound 216]: the Ki is ≤ 10 nM. As for `OB(O)c1ccc2cn(Cc3ccccc3)nc2c1` [Compound 217], the figure is ≤ 10 nM. As for `OB(O)c1ccc(-c2cccc(-c3ccccc3)c2)cc1` [Compound 219], the figure is 10 to 100 nM; as for `CC(C)Cn1cc(B(O)O)cn1` [Compound 220], 100 to 1000 nM.

`OB(O)c1ccc2nc(COc3ccccc3)ccc2c1` [Compound 221]: the Ki was 10 to 100 nM. Take `CC(C)CCn1cc(-c2ccc(B(O)O)cc2)cn1` [Compound 222]: the Ki is ≤ 10 nM.

As to `Cc1nc(-c2ccccc2)sc1-c1ccc(B(O)O)c(F)c1` [Compound 225], the Ki was 10 to 100 nM. Under `OB(O)c1ccc(-c2cnn(Cc3ccccc3)c2)cc1F` [Compound 226] stands ≤ 10 nM. As for `OB(O)c1ccc(-c2cnn(Cc3ccccc3)c2)cc1` [Compound 227], the figure is ≤ 10 nM; as for `COc1ccc2cc(-c3ccc(B(O)O)cc3)ccc2c1` [Compound 228], 10 to 100 nM. Regarding `OB(O)c1ccc(-c2cccc3ncccc23)cc1F` [Compound 229], the Ki was in the range of 10 to 100 nM. As to `OB(O)c1ccc(-c2cccc3[nH]ccc23)cc1F` [Compound 230], the Ki was in the range of 10 to 100 nM. With `OB(O)c1ccc(-n2cc(-c3ccccc3)cn2)cc1` [Compound 231], the Ki is ≤ 10 nM.

Turning to `OB(O)c1ccc(-c2cnn(-c3ccccc3)c2)cc1` [Compound 232], the Ki is ≤ 10 nM. As for `CC(C)(C)OC(=O)N1CCC(c2ccc(B(O)O)cc2)CC1` [Compound 233], the figure is ≤ 10 nM; as for `CN(CCc1ccc(B(O)O)cc1)C(=O)OC(C)(C)C` [Compound 234], ≤ 10 nM; as for `CN(CCCc1ccc(B(O)O)cc1)C(=O)OC(C)(C)C` [Compound 235], ≤ 10 nM.

In the case of `O=S(=O)(c1ccccc1)N1CCC(c2ccc(B(O)O)cc2)CC1` [Compound 236], the Ki was in the range of 10 to 100 nM. Under `CN(CCc1ccc(B(O)O)cc1)S(=O)(=O)c1ccccc1` [Compound 237] stands ≤ 10 nM; under `CN(CCCc1ccc(B(O)O)cc1)S(=O)(=O)c1ccccc1` [Compound 238], ≤ 10 nM; under `O=C(CCc1nnc(-c2ccc(B(O)O)cc2)o1)N1CCCCC1` [Compound 239], 10 to 100 nM. As to `OB(O)c1ccc2nc(Cc3ccccc3)oc2c1` [Compound 241], the Ki is ≤ 10 nM. Under `OB(O)c1ccc2oc(CCc3ccccc3)nc2c1` [Compound 242] stands ≤ 10 nM; under `OB(O)c1ccc2nc(CCc3ccccc3)oc2c1` [Compound 243], ≤ 10 nM; under `CCCc1nc2ccc(B(O)O)cc2o1` [Compound 244], ≤ 10 nM.

As to `CCCCCc1nc2ccc(B(O)O)cc2o1` [Compound 245], the Ki is ≤ 10 nM. For the compound `OB(O)c1ccc2nc(CCCC(F)(F)F)oc2c1` [Compound 246], the Ki is ≤ 10 nM.

These data come from US8957049B2, “Inhibitors of fatty acid amide hydrolase” (Infinity Pharmaceuticals, Inc., priority 2008, dated 2015).
